Source: patent US20050245498A1, “Sterically-awkward beta-lactamase inhibitors” (priority 2002, published 2005)
pIC50: −log10 of the molar value. ≈ marks a conversion by molar mass, not a printed value. Read-outs that look alike come from different tables or passages of the source.

Assays:
AmpC β-lactamase [1] = molecular target: T1, AmpC β-lactamase (Escherichia coli, UniProt P00811); test: biochemical; set-up: made in house; conditions: for IC50 compared to cefotaxime (fold lower): relative to cefotaxime IC50
T1 sequence (P00811 20-377): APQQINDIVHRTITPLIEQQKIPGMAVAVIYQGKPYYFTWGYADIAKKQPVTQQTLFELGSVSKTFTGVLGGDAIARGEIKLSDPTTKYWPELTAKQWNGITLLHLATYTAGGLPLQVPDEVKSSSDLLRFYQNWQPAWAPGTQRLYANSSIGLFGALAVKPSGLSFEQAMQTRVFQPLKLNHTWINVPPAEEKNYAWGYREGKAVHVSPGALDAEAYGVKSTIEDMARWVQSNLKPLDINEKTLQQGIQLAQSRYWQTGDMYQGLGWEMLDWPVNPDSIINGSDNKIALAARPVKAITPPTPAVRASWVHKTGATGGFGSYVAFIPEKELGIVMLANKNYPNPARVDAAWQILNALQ

[2] = test system: E. coli expressing AmpC β-lactamase; test: microbe, parasite or virus in culture; format: cell-based; conditions: for Minimum inhibitory concentration (MIC): E. coli expressing AmpC β-lactamase, Luria Broth, about 5×10^5 CFU/mL
Protocol: (§1) Microbiology. Serial dilution assays in ligand culture were performed to examine the efficacy of these awkward β-lactams against clinically relevant pathogens grown in liquid culture (Table 3). The compounds were dissolved in KPi or tris hydroxymethyl aminomethane hydrochloride to a concentration of 20-50 mM, and serial dilutions were performed into Luria Broth (Difco, Detroit Mich.). Each broth solution was then inoculated with bacterial cells from an overnight culture that had been diluted to give an inoculum concentration of approximately 5×10^5 CFU/mL.

[3] = test system: E. coli not expressing AmpC β-lactamase; test: microbe, parasite or virus in culture; format: cell-based; conditions: for Minimum inhibitory concentration (MIC): E. coli not expressing AmpC β-lactamase, Luria Broth, about 5×10^5 CFU/mL
Protocol: as §1

AmpC β-lactamase [4] = molecular target: T1, AmpC β-lactamase; conditions: hydrolysis by AmpC, 1.75 nM enzyme, 50 mM Tris pH 7
Protocol: Escherichia coli. AmpC β-lactamase was expressed and purified to homogeneity as previously described. The AmpC-catalyzed hydrolysis of the various β-lactams was monitored in an HP8453 UV/visible spectrophotometer. […] The reaction buffer used during the assays was 50 mM tris hydroxymethyl aminomethane hydrochloride (Fisher, Fair Lawn N.J.) at pH 7 in doubly-deionized water. kcat and KM values were determined at an enzyme concentration of 1.75 nM, with enzyme concentration determined, from more concentrated stocks, based on an ε280 of 0.098 μM^−1 cm^−1. […] Except for compounds synthesized for this study (ATMO-penicillin, ATMO-loracarbef), all compounds were used as supplied from the manufacturers without further purification.
Enzymology. The AmpC-catalyzed hydrolysis of the β-lactams cefotaxime, ATMO-penicillin, and ATMO-loracarbef (FIG. 1B) were monitored by UV-vis spectroscopy (Table 1).

[5] = test system: CO/N=C(\C(=O)N[C@@H]1C(=O)N2C(C(=O)O)=C(COC(C)=O)CS[C@H]12)c1csc(N)n1; test: purified protein, by the assay type; conditions: other: hydrolysis by AmpC, 1.75 nM enzyme, 50 mM Tris pH 7
[6] = test system: CC(=O)OCC1=C(C(=O)O)N2C(=O)[C@@H](NC(=O)Cc3cccs3)[C@H]2SC1; test: purified protein, by the assay type; conditions: other: hydrolysis by AmpC, 1.75 nM enzyme, 50 mM Tris pH 7
[7] = test system: CO/N=C(\C(=O)N[C@@H]1C(=O)N2[C@@H]1SC(C)(C)[C@@H]2C(=O)O)c1csc(N)n1; test: purified protein, by the assay type; conditions: other: hydrolysis by AmpC, 1.75 nM enzyme, 50 mM Tris pH 7
[8] = Escherichia coli, read-out: Minimum inhibitory concentration (MIC)

Molecule: CO/N=C(\C(=O)N[C@@H]1C(=O)N2C(C(=O)O)=C(COC(C)=O)CS[C@H]12)c1csc(N)n1 [Cefotaxime, cefotaxime]
- pIC50 (AmpC β-lactamase [1]): 6.10
- Minimum inhibitory concentration (MIC) [2]: 1/32
- Minimum inhibitory concentration (MIC) [3]: 1/128

Molecule: N[C@@H](C(=O)N[C@@H]1C(=O)N2C(C(=O)O)=C(Cl)CC[C@H]12)c1ccccc1 [Loracarbef, loracarbef]
- Kcat (AmpC β-lactamase [4]): 118.3 s⁻¹
- Km (AmpC β-lactamase [4]): 23.7 µM
- Kcat (AmpC β-lactamase [4]; listed as loracarbef): 118 s⁻¹
- Minimum inhibitory concentration (MIC) [2]: 8 µg/mL (≈ 22.9 µM)
- Minimum inhibitory concentration (MIC) [3]: 4 µg/mL (≈ 11.4 µM)

Molecule: CO/N=C(\C(=O)N[C@@H]1C(=O)N2[C@@H]1SC(C)(C)[C@@H]2C(=O)O)c1csc(N)n1 [ATMO-penicillin]
- pIC50 (AmpC β-lactamase [1]): 6.05
- IC50 compared to cefotaxime (fold lower) (AmpC β-lactamase [1]): comparable to cefotaxime
- Kcat (AmpC β-lactamase [4]): < 0.0045 s⁻¹

Molecule: AmpC β-lactamase (Escherichia coli K-12)
- kcat [5]: 0.0448 s⁻¹
- Km [6]: 31.3 µM
- kcat [6]: 262 s⁻¹
- kcat [7]: < 0.0045 s⁻¹

Molecule: CON=C(C(=O)NC1C(=O)N2C(C(=O)O)=C(Cl)CCC12)c1csc(N)n1 (centres unmarked) [ATMO-loracarbef, 7-ATMO-3-chloro-carbacephem]
- pIC50 (AmpC β-lactamase [1]; against 200 μM nitrocefin, read-out: IC50): 7.10
- IC50 compared to cefotaxime (fold lower) (AmpC β-lactamase [1]): 11 fold
- Kcat (AmpC β-lactamase [4]): 0.0323 s⁻¹
- Minimum inhibitory concentration (MIC) [2]: 1 µg/mL (≈ 2.5 µM)
- Minimum inhibitory concentration (MIC) [3]: ¼

Molecule: CC1(C)S[C@@H]2[C@H](NC(=O)Cc3ccccc3)C(=O)N2[C@H]1C(=O)O [Penicillin G, penicillin G]
- Kcat (AmpC β-lactamase [4]): 133.1 s⁻¹
- Km (AmpC β-lactamase [4]): 5.05 µM
- Kcat (AmpC β-lactamase [4]; listed as penicillin G): 133 s⁻¹

Molecule: CC(=O)OCC1=C(C(=O)O)N2C(=O)[C@@H](NC(=O)Cc3cccs3)[C@H]2SC1 [Cephalothin, cephalothin]
- Kcat (AmpC β-lactamase [4]): 263 s⁻¹
- MIC [2, 8]: 64 µg/mL (≈ 161 µM)
- MIC [3, 8]: 8 µg/mL (≈ 20.2 µM)
